# Measured values from patent US7005449B2, “Tolterodine salts” (Pharmacia & Upjohn Company, priority 2002, dated 2006).
# Key:
# [1] = Rotating disk dissolution of tolterodine salts; assay type: physicochemical; details: 25° C.; for Rotating disk dissolution rate (RDDR): pH 6, 0.05 M phosphate buffer
# Experimental: Data was collected on the salts. Rotating disk dissolution data was collected at pH 6 in a 0.05 M phosphate buffer at 25° C. on a fiber optic apparatus.
# [2] = Rotating disk dissolution of tolterodine salts; assay type: physicochemical; details: extrapolated from carbon chain length trend
# [3] = traditional tablet administration; cited from earlier work
# [4] = Equilibrium solubility of tolterodine salts (shaking excess salt 24 hours, RP-HPLC)
# Experimental: The resultant solution is centrifuged at 5000 rpm for 30 min in a temperature-controlled centrifuge. The supernatant was diluted and analysed for tolterodine by reversed phase high performance liquid chromatography (RP-HPLC).
compound,measurement,setting,value
CCCCCCCCCC(=O)O.Cc1ccc(O)c([C@H](CCN(C(C)C)C(C)C)c2ccccc2)c1 [caprate],Rotating disk dissolution rate (RDDR),[1],0.75 μg cm^−2s^−1
CCCCCCCCCCCCCC(=O)O.Cc1ccc(O)c(C(CCN(C(C)C)C(C)C)c2ccccc2)c1 (centres unmarked) [myristic (14 C)],predicted dissolution rate,[2],very low
CCCCCCCCCCCCCCCC(=O)O.Cc1ccc(O)c(C(CCN(C(C)C)C(C)C)c2ccccc2)c1 (centres unmarked) [palmitic (16 C)],predicted dissolution rate,[2],very low
"Cc1ccc(O)c(C(CCN(C(C)C)C(C)C)c2ccccc2)c1.O=C(O)c1cc2ccccc2c(Cc2c(O)c(C(=O)O)cc3ccccc23)c1O [pamoate, tolterodine pamoate]",Rotating disk dissolution rate (RDDR),[1],<0.3 μg cm^−2s^−1
same,Rotating disk dissolution rate (RDDR),[1]; listed as pamoate salt,less than the detection limit of the instrument
"Cc1ccc(O)c([C@H](CCN(C(C)C)C(C)C)c2ccccc2)c1.O=C(O)C(O)C(O)C(=O)O [tartrate, tolterodine tartrate, reference compound]",rotating disk dissolution rate,[1]; pH 6 media,14 μg cm^−2sec^−1
same,Rotating disk dissolution rate (RDDR),[1],14.0 μg cm^−2s^−1
"Cc1ccc(O)c([C@H](CCN(C(C)C)C(C)C)c2ccccc2)c1 [tolterodine, 2-[(1R)-3-(diisopropylamino)-1-phenylpropyl]-4-methylphenol]",time of peak plasma concentration,[3],1 to 2 h
benzoate,Rotating disk dissolution rate (RDDR),[1],2.1 μg cm^−2s^−1
fumarate,Rotating disk dissolution rate (RDDR),[1],2.6 μg cm^−2s^−1
laurate,Rotating disk dissolution rate (RDDR),[1],0.38 μg cm^−2s^−1
maleate,Rotating disk dissolution rate (RDDR),[1],4.1 μg cm^−2s^−1
same,Equilibrium solubility in buffer,"[4]; 0.1 M phosphate buffer pH 7.4, 24 hours, room temperature",4.7 mg/mL
same,final pH in buffer,[4]; final pH of the buffer solubility sample,6.9
same,final pH in water,[4]; final pH of the water solubility sample,5.0
same,Equilibrium solubility in water,"[4]; water, 24 hours, room temperature",1.5 mg/mL
tolterodine heptanoate,Rotating disk dissolution rate (RDDR),[1],2.7 μg cm^−2s^−1
